Where two headings read alike, the source gives them in different places. Peptide text beside a SMILES is read from it. * marks the point of attachment. Cbz = O=C(OCc1ccccc1)*
Experiments:
[1] = test system: Aβ40 production from endogenous APP in regulated secretory vesicles isolated from chromaffin cells; assay: Aβ production from endogenous APP in isolated regulated secretory vesicles; assay type: biochemical, bovine; details: inhibitor 10 μM
Experimental: Regulated secretory vesicles isolated from chromaffin cells naturally produce Aβ from endogenous APP when incubated at 37° C. in vitro for several hours. These vesicles can be used as an in vitro screen for compounds that inhibit Aβ production. […] The effects of cathepsin B inhibitors, CA074 (10 μM, ♦) and CA074Me (10 μM, □), on the production of Aβ40 from endogenous APP in regulated secretory vesicles isolated from chromaffin cells was evaluated in time course studies. […] Each inhibitor was tested in triplicate; values represent x±sem (*statistically significant with p<0.05).
Cathepsin B compounds that were effective inhibitors of endogenous II-secretase activity were tested for inhibition of Aβ peptide production in regulated secretory vesicles. The effect of reversible cathepsin B compounds on production of Aβ40 and Aβ42 in isolated chromaffin vesicles was tested by incubating candidate inhibitors (at 10 μM) with lysed chromaffin vesicles under identical conditions as for the β-secretase assay for 8 hours. […] After incubation, Aβ40 and Aβ42 was measured by ELISA assays, as described for measurement of Aβ peptides in brain extracts. Each candidate inhibitor was assayed in triplicate.

[2] = test system: endogenous β-secretase activity in regulated secretory vesicles; assay: endogenous β-secretase activity in isolated regulated secretory vesicles, monitored with Z-Val-Lys-Met-MCA; assay type: biochemical, bovine
Experimental: A high throughput screening (HTS) assay was developed to measure protease activity that cleaves the wild-type β-secretase cleavage site. The substrate Z-Val-Lys-Met-MCA mimics the wild-type β-secretase cleavage site upon cleavage between Met-MCA, which generates fluorescent MCA. The free MCA fluorescence provides sensitive and quantitative measurement of protease activity. This assay provides a rapid (30 minutes) and sensitive assay of activity for cleaving the wild-type β-secretase cleavage site of APP, expressed in majority of the AD population Specifically, the Z-Val-Lys-Met-MCA cleaving assay can be used to detect endogenous β-secretase activity in regulated secretory vesicles.
Isolation of regulated secretory vesicles, also known as chromaffin vesicles, from adrenal medullary tissue (bovine) was conducted by sucrose density gradient purification, as described previously (54-56, 58). Briefly, fresh bovine adrenal medulla (from 40 glands) was gently homogenized by a polytron (Brinkmann) in 200-250 ml ice-cold 0.32 M sucrose. The homogenate was centrifuged at 1500 rpm in a GSA rotor (Sorval centrifuge) for 20 minutes at 4° C. The supernatant was collected and centrifuged at 8000 rpm in a GSA rotor for 20 minutes at 4° C. to obtain a pellet of chromaffin vesicles. The pellet was washed 3 times in 0.32 M sucrose. […]

[3] = biological target: T1, cathepsin B (Homo sapiens, UniProt P07858); assay: recombinant cathepsin B β-secretase assay (Z-VKM-MCA); assay type: biochemical; parameters: purchased; details: recombinant human cathepsin B (3.5 ng), Z-V-K-M-MCA substrate (100 μM); read-out: IC50 inhibitory concentration
Experimental: Peptide structures that inhibit cathepsin B β-secretase activity were used to develop small molecule AD drugs. A library of dipeptide aldehydes were screened for an inhibitory effect on the cathepsin B β-secretase activity using recombinant human cathepsin B (3.5 ng) cleavage of the Z-V-K-M-MCA substrate (100 μM).
The recombinant cathepsin B β-secretase assay occurs in a solution (100 μl total volume) consisting of H2O (20 μl), Na-Acetate (50 mM, pH 5.0), NaCl (100 mM), Z-VKM-MCA (100 μM), GSH (10 mM), EDTA (1 mM), and recombinant human cathepsin B (3.5 ng) and 2DMSO (2%). A dipeptide aldehyde was added to such solutions in varying amounts to determine the IC50. The reagents were generally commercially available or, in the case of the dipeptide aldehydes, custom synthesized. The assay was incubated at 37° C. for 45 minutes and the fluorescence was read using a spectrophotometer (365/450 nm excitation/emission). Assays were run in duplicate. Compounds that inhibited cathepsin B by 80-100% (at 10 μM) underwent dose-response testing at […] to 10 μM to determine potency, measured as IC50 values (determined by non-linear regression a analysis using Graphpad Prism). Compounds with IC50 values in the nanomolar range, up to 100 nM, were selected for further study.

[4] = test system: brain and synaptosomal Aβ; assay: guinea pig brain and synaptosome Aβ by ELISA after icv infusion; assay type: in vivo; details: icv 0.15 mg/kg/day, 30 days
Description: Guinea pig (gp) is a natural, non-transgenic model of human APP processing gpAPP is 98% homologous to human APP, contains the human wild-type β-secretase site, and gpAβ is identical to human Aβ. Brain synaptosome preparations are enriched with neuronal synapses which are the sites at which regulated secretion occurs and are an in vivo measure of regulated secretory secretion CTFβ is an APP fragment that results from p-secretase cleavage of APP and reflects in vivo β-secretase activity. […] E64d was icy administered into gp brains (0.15 mg/kg/day) for 7 or 30 days. […] In FIG. 5b, total synaptosomal Aβ is shown.
CA074Me (0.15 mg/kg/day) was icy infused into gp brains with mini pumps. […] An equal reduction of Aβ40 and Aβ42 is consistent with the inhibitor affecting p-secretase activity
At the end of the treatment, the brains were isolated and extracted with guanidine hydrochloride and Aβ40 and Aβ42 levels were determined using ELISA.
Cathepsin B inhibitors were administered directly into the brain by icy infusion with minipumps in time course studies at different doses. Guinea pigs were infused with compounds using Alzet pumps (2.5 μl/hr, with compounds at 1 mg/ml in saline) for 7 and 30 days, and other times. This initial dose of compound was selected because E64d and CA074Me are effective at this dose. Each treatment group consisted of eight to ten guinea pigs, including the vehicle control group.
At the end of each experiment, animals were sacrificed and half the brain was taken for ELISA measurement of Aβ40 and Aβ42 levels. The other half was isolated for synaptosome preparations for ELISA measurement of Aβ40 and Aβ42 content in nerve terminals. Synaptosomes were prepared by homogenization in isotonic sucrose (320 mM), pH 7.4, 1 mM EDTA, 0.25 mM dithiothreitol, and 30 U/MI RNAse inhibitor. The homogenate was centrifuged at 1000×g for 10 minutes. The supernatant was loaded on a Sucrose-Percoll discontinuous gradient and centrifuged at 32,000×g for 5 minutes (80) Enriched synaptosomes were washed in PBS, and centrifuged at 12,000×g for 4 minutes. The supernatant was removed, and the synaptosome containing pellet was resuspended in 50% OptiPrep (Accurate Chemica. Westbury, N.Y.), loaded on an OptiPrep discontinuous flotation gradient (9, 12.5, 25, and 35%) and centrifuged at 10,000×g for 20 minutes. The synaptosomes were obtained at the […]
For quantitative analysis of Aβ peptides, an enzyme-linked immunosorbent assay (ELISA) was used to measure the levels of total Aβ, Aβtotal, Aβ40 and Aβ42 in the brains and synaptosomes of guinea pigs (Biosource International, Camarillo, Calif.) Aβtotal, Aβ40, Aβ42 was extracted from guinea pig brains or from synaptosomes by guanidine hydrochloride and quantified as described by the manufacturer. This assay extracted the total Aβ peptide from the brain (both soluble and aggregated). Tissue samples were homogenized in 5M guanidine buffer (5M guanidine HCl in 50 mM Tris-Cl, pH 8.3; Sigma-Aldrich, St. Louis, Mo.) at 1:10 w/v dilution. Homogenates were agitated at room temperature for 3-4 hours, then stored at −20° C. The day before running the ELISA, the tissue samples were diluted further 1:10 to provide a final guanidine concentration of 0.5M. These diluted homogenates were spun down at 14,000 rpm for 20 minutes at 4° C. and supernatants used for Aβ determination by ELISA (84-86). Brain and synaptosome extracts were assayed as diluted in 0.5M guanidine. In addition, Aβ40 and Aβ42 were assayed using ELISA using 6E10 as the capture antibody and Rb209 and Rb321 as reporter antibodies, respectively, for Aβ40 and Aβ42 (96).

[5] = biological target: T1, cathepsin B; details: reference (4); read-out: IC50 for cathepsin B inhibition; cited from earlier work
[6] = biological target: aspartyl protease, BACE1 (Homo sapiens, UniProt P56817); assay: effect on BACE1; assay type: biochemical
Sequence of aspartyl protease, BACE1 (P56817 46-501): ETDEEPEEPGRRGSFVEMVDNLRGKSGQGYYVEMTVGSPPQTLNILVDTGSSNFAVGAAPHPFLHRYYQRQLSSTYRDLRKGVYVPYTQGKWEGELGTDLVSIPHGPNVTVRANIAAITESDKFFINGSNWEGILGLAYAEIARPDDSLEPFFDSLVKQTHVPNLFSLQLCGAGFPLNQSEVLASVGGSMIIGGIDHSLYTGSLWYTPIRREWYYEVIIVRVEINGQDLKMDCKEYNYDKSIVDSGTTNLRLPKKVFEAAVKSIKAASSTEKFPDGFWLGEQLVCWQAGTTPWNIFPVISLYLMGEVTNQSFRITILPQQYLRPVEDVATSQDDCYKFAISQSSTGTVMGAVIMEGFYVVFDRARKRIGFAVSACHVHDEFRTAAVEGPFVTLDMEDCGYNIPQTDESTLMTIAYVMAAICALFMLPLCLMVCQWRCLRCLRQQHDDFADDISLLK

[7] = biological target: cathepsin B purified from secretory vesicles (Bos taurus, UniProt P07688); assay: Z-Val-Lys-Met-MCA cleaving activity of purified cathepsin B; details: inhibitor 10 μM
[8] = test system: brain Aβ; details: wild-type mice, icv 200 mg/kg/day; cited from earlier work

For `CCCNC(=O)[C@H]1O[C@@H]1C(=O)N[C@H](C(=O)N1CCC[C@H]1C(=O)O)[C@@H](C)CC` [CA074], the “effect on Aβ production in isolated regulated secretory vesicles” value [1] was “block Aβ production” and the “inhibition of endogenous β-secretase activity in regulated secretory vesicles” value ([2]; inhibitor 1 μM) was “completed inhibited”.
`CC(C)C(C=O)NC(=O)C(Cc1ccc(O)cc1)NC(=O)OCc1ccccc1` (stereo not drawn) [Z-YV-ald] (Cbz-Tyr-Val-aldehyde; configuration not given here) gave an IC50 [3] of 65 nM.
Work on `CC(=O)NCCCCC(C=O)NC(=O)C(CSC(=O)OCc1ccccc1)NC(=O)OCc1ccccc1` (stereo not shown) [Z-C(Z)K(Ac)-ald] (Cbz-Cys(Cbz)-Lys(Ac)-aldehyde; configuration not given here) yielded an IC50 [3] of 91 nM.
For `CC(=O)N[C@@H](CC(C)C)C(=O)N[C@H](C(=O)N[C@H](C=O)CCCCN)C(C)C` [Ac-LVK-CHO, acetyl-L-leucyl-L-valyl-L-lysinal] (Ac-Leu-Val-Lys-aldehyde), the “reduction of Aβ40 in brain extracts” value [4] is listed as “about 70%”, the “reduction of Aβ42 in brain extracts” value [4] is listed as about 60% and the IC50 [5] is listed as 4 nM. The “effect on BACE1” value [6] was “do not affect”.
For `CC(C)CCNC(=O)[C@H](CC(C)C)NC(=O)[C@H]1O[C@@H]1C(=O)O` [E64c], the “effect on Aβ production in isolated regulated secretory vesicles” value [1] was “inhibited”, the “inhibition of endogenous β-secretase activity in regulated secretory vesicles” value ([2]; inhibitor 10 μM) was “completed inhibited” and the “inhibition of Z-Val-Lys-Met-MCA cleaving activity of cathepsin B” value [7] was “completely inhibited”.
With `O=CC(CO)NC(=O)C(CCC(=O)NC(c1ccccc1)(c1ccccc1)c1ccccc1)NC(=O)OCc1ccccc1` (stereo not shown) [Z-Q(Trt)S-ald] the IC50 [3] was 58 nM.
Work on `CC(=O)NCCCCC(C=O)NC(=O)C(NC(=O)OCc1ccccc1)C(C)C` (stereo not shown) [Z-VK(Ac)-ald] yielded an IC50 [3] of 31 nM.
`O=CC(CO)NC(=O)C(Cc1ccc(O)cc1)NC(=O)OCc1ccccc1` (stereo not drawn) [Z-YS-ald] (Cbz-Tyr-Ser-aldehyde; configuration not given here) gave an IC50 [3] of 37 nM.
In the case of `CC(C)C[C@H](NC(=O)[C@@H](NC(=O)[C@@H](N)CNC(=O)c1nn[nH]n1)C(C)C)C(=O)N[C@@H](Cc1ccccc1)[C@@H](O)C(=O)Nc1cc(C(=O)O)cc(C(=O)O)c1` [KMI-429], the “maximum reduction in brain Aβ” value [8] is given as 30-40%.
Compound `O=CC(CO)NC(=O)C(CSC(=O)OCc1ccccc1)NC(=O)OCc1ccccc1` (stereo not shown) [Z-C(Z)S-ald] (Cbz-Cys(Cbz)-Ser-aldehyde; configuration not given here) has an IC50 [3] of 67 nM.

From patent US20100216875A1, “METHODS OF TREATING ALZHEIMER'S DISEASE” (priority 2006, published 2010)
